Measured values as given in US7407947B2, “Amphoteric sterols and the use thereof” (Novosom AG, priority 2001, dated 2008).

Experiment: Isoelectric point of the sterol derivative
Type: physicochemical
Details: stated as very close to pH 6.5

CC(C)CCCC(C)C1CCC2C3CC=C4CC(OC(=O)CCC(=O)NC(Cc5cnc[nH]5)C(=O)O)CCC4(C)C3CCC12C [Hist-Chol, Cholesteryl-L-histidyl Succinate]
isoelectric point: ~6.5
